Blank lines part the entries; values can stand above or below the compound they belong to.
How the values were obtained:
[1] = target: Cyclin-dependent kinase 18 (Homo sapiens) (UniProt Q07002); assay: Selectivity interaction (ActivX KiNativ screen (kinase selectivity in THP-1 cell lysates)) EUB0000639a CDK18; assay type: subcellular; settings: lysate, at 5 µM
[2] = target: BMP-2-inducible protein kinase (Homo sapiens) (UniProt Q9NSY1); assay: Selectivity interaction (Kinase panel (DSF assay)) EUB0001489b BMP2K
[3] = target: T1, Serine/threonine-protein kinase Nek5 (Homo sapiens) (UniProt Q6P3R8); assay: Selectivity interaction (KinomeScan (DiscoverX)) EUB0000695a NEK5; settings: at 100 nM
T1 sequence (whole entry): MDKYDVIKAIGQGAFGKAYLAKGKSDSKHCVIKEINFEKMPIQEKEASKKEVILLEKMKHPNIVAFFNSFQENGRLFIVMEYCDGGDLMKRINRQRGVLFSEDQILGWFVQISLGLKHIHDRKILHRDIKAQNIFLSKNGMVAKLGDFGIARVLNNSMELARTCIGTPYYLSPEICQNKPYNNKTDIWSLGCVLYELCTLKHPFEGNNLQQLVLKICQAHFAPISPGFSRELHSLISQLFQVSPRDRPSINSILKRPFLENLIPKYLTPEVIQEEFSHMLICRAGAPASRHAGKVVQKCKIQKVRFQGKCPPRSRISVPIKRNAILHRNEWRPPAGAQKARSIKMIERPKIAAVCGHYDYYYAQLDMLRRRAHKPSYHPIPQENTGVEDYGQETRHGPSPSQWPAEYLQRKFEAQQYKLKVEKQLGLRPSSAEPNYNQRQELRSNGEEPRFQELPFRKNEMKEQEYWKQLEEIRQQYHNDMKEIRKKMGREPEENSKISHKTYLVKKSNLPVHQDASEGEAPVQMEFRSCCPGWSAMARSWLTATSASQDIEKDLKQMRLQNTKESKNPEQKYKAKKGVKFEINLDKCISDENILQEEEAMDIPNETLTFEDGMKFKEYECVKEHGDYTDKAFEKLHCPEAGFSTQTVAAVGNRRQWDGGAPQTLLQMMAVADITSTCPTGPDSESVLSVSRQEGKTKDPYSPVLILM

[4] = target: Mitogen-activated protein kinase 1 (Homo sapiens, UniProt P28482); assay: Selectivity interaction (Ambit KINOMEscan and KiNATiv profiling in Jurkat cells) EUB0000090b MAPK1; assay type: cell-based; settings: at 1 µM
[5] = target: Non-receptor tyrosine-protein kinase TYK2 (Homo sapiens, UniProt P29597); assay: Selectivity interaction (KinomeScan (DiscoverX)) EUB0001079a TYK2; settings: at 1 µM
[6] = target: T2, Histone-lysine N-methyltransferase NSD3 (Homo sapiens) (UniProt Q9BZ95); assay: Selectivity interaction (PWWP, WD40, and Tudor domain panel (DSLS measurements, literature)) EUB0000270b NSD3
T2 sequence (whole entry): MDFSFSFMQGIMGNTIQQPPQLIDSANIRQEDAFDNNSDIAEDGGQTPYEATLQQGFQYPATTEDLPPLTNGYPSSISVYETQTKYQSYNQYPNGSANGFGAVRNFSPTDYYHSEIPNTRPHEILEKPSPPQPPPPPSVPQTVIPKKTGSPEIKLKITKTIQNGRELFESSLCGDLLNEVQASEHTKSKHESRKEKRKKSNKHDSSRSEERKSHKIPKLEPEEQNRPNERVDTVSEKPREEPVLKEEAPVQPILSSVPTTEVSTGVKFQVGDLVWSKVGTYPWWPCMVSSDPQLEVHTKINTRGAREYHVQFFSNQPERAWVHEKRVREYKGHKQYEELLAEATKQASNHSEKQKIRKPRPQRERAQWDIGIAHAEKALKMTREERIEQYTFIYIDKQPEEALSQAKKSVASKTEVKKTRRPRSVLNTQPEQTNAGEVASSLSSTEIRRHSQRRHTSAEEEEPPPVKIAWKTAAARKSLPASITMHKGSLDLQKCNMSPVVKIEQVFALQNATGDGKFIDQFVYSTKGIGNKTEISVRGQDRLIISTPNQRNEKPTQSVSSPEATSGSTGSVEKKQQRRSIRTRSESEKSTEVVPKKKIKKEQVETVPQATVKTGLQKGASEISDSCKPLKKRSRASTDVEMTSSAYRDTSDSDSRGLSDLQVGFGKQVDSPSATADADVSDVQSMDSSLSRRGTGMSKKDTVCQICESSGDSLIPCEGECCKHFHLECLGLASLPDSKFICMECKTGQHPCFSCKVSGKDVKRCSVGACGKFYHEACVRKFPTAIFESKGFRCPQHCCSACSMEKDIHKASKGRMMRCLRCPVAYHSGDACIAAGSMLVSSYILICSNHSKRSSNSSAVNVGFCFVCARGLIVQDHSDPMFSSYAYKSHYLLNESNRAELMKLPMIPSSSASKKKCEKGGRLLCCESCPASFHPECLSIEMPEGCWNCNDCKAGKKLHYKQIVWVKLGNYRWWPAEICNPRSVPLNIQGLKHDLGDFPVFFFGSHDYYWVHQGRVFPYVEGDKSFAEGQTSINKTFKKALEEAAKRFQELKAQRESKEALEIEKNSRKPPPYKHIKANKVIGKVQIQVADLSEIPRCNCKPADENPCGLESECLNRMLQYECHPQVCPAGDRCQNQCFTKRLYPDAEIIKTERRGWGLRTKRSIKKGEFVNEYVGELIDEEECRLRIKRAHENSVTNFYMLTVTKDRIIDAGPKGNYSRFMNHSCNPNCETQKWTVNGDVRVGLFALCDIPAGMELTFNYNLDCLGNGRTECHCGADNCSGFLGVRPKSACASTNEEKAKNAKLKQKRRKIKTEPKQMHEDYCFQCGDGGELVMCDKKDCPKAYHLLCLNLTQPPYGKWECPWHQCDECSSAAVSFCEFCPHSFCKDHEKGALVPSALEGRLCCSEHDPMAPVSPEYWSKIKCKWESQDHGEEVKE

[7] = target: Serine/threonine-protein kinase SIK2 (Homo sapiens) (UniProt Q9H0K1); assay: Selectivity interaction (KinomeScan (DiscoverX)) EUB0000618a SIK2; settings: at 10 µM
[8] = target: Tyrosine-protein kinase CSK (Homo sapiens) (UniProt P41240); assay: Selectivity interaction (ActivX KiNativ screen (ex vivo kinase selectivity in human PBMCs)) EUB0001619a CSK; assay type: cell-based; settings: PBMC, at 1 µM
[9] = target: Serine/threonine-protein kinase N1 (Homo sapiens, UniProt Q16512); assay: Selectivity interaction (KinomeScan (DiscoverX)) EUB0001619a PKN1; settings: at 1 µM
Chain of Serine/threonine-protein kinase N1 (Q16512 2-942 limits assumed): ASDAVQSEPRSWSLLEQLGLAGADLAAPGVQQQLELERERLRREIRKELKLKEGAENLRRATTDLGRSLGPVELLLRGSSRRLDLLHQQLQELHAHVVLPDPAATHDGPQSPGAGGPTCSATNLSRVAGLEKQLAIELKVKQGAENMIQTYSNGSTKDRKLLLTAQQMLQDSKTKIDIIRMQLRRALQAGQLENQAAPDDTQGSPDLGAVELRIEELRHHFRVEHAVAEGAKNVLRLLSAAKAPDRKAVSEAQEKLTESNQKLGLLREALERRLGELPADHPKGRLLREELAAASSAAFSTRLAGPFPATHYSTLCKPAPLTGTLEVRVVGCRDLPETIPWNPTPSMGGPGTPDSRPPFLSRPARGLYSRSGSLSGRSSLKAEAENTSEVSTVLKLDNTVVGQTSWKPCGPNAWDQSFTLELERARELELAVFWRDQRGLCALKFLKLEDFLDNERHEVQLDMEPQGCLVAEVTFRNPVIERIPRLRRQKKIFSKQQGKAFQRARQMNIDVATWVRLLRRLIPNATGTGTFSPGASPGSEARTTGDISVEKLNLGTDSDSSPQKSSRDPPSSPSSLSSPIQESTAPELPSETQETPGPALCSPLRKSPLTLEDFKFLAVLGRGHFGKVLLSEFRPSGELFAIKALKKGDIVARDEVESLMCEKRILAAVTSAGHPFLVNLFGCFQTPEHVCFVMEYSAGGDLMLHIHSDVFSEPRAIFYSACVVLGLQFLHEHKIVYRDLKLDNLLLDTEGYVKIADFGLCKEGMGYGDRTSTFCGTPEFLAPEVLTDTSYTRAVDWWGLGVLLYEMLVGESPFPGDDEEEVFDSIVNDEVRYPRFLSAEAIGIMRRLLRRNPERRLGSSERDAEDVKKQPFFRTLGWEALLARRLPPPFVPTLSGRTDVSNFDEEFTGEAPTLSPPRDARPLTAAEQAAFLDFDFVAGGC

Chain of Tyrosine-protein kinase CSK (Homo sapiens) (P41240 2-450 limits assumed): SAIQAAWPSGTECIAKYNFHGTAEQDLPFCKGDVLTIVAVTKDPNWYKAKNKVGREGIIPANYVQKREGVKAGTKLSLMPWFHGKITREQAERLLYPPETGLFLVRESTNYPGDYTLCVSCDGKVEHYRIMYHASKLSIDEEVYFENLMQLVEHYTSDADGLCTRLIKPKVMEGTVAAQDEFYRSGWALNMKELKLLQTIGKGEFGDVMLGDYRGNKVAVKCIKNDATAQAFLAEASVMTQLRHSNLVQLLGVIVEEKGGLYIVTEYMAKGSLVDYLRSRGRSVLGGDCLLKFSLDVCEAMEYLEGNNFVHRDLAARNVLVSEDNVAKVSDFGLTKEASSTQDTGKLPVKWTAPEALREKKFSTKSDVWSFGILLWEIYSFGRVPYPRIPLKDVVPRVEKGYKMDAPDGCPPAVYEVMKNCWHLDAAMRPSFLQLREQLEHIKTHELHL
Chain of BMP-2-inducible protein kinase (Homo sapiens) (Q9NSY1 whole entry, looked up): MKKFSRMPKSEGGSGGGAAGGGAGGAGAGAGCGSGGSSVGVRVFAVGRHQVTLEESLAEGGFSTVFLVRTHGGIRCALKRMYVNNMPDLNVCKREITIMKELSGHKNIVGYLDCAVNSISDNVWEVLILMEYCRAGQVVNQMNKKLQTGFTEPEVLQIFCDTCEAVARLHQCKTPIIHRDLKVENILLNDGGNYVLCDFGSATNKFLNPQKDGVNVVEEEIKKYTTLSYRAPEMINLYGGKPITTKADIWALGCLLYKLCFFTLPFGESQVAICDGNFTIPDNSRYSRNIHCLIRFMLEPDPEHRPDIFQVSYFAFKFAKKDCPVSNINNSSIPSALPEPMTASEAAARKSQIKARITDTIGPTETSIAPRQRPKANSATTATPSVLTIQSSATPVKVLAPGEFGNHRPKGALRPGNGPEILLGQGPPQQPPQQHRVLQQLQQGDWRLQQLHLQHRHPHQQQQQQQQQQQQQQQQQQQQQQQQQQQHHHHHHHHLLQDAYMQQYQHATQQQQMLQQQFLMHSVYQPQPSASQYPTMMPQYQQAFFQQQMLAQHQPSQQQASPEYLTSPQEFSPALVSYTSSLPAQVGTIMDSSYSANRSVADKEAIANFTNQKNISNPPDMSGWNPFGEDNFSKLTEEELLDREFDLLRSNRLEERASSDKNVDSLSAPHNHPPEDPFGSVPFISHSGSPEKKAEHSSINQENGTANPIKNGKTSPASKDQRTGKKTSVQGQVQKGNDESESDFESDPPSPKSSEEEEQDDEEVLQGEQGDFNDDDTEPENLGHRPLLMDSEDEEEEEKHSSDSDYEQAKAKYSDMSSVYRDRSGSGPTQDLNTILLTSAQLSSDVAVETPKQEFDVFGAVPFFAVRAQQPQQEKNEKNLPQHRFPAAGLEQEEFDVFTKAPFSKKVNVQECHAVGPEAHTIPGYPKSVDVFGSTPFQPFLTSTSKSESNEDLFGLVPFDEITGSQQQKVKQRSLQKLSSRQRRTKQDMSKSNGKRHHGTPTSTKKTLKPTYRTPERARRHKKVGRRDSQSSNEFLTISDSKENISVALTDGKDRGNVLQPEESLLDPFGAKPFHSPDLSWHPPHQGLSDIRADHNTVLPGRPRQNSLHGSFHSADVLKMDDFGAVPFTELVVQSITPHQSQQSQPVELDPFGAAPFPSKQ
Chain of Mitogen-activated protein kinase 1 (P28482 whole entry): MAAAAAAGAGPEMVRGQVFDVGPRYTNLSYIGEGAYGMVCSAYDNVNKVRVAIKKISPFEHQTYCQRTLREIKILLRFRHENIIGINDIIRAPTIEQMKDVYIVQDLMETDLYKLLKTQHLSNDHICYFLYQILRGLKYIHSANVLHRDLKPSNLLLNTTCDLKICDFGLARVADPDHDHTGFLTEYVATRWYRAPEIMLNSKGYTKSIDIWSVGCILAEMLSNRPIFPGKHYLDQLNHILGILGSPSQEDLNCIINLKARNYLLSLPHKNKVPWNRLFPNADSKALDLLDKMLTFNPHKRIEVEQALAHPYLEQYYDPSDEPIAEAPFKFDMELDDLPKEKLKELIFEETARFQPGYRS
Chain of Non-receptor tyrosine-protein kinase TYK2 (P29597 whole entry, the tested form may be a part): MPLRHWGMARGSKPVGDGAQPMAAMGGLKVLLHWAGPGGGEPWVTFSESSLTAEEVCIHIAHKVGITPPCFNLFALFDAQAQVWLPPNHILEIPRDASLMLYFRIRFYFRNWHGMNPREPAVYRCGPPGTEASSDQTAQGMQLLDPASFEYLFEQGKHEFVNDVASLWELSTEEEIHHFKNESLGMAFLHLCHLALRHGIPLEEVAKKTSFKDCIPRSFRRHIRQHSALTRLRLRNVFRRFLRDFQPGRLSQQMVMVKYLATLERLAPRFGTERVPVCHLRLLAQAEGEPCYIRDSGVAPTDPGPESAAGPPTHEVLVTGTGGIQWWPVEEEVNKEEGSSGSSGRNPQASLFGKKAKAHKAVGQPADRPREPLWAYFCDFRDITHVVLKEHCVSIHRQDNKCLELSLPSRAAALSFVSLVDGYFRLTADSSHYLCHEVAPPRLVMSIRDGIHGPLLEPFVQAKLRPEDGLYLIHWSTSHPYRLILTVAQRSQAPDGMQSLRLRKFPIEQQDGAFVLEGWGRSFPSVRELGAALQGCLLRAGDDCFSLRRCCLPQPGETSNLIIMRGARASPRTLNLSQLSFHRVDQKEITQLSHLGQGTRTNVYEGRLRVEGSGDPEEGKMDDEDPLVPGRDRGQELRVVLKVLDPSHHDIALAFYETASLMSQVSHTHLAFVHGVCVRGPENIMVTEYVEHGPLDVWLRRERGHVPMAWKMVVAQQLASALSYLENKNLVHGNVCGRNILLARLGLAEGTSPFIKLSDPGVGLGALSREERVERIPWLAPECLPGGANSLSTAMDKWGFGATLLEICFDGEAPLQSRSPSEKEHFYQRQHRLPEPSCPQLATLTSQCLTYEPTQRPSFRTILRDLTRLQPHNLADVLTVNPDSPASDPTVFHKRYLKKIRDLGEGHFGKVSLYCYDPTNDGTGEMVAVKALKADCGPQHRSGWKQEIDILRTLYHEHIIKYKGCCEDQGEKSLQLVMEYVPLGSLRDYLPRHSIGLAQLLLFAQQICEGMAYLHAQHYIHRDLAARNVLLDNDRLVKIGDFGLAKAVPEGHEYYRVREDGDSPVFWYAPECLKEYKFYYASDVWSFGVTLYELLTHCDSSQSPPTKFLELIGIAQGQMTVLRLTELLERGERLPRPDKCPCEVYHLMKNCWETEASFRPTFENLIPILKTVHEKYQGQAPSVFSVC
Chain of Serine/threonine-protein kinase SIK2 (Homo sapiens) (Q9H0K1 whole entry, looked up): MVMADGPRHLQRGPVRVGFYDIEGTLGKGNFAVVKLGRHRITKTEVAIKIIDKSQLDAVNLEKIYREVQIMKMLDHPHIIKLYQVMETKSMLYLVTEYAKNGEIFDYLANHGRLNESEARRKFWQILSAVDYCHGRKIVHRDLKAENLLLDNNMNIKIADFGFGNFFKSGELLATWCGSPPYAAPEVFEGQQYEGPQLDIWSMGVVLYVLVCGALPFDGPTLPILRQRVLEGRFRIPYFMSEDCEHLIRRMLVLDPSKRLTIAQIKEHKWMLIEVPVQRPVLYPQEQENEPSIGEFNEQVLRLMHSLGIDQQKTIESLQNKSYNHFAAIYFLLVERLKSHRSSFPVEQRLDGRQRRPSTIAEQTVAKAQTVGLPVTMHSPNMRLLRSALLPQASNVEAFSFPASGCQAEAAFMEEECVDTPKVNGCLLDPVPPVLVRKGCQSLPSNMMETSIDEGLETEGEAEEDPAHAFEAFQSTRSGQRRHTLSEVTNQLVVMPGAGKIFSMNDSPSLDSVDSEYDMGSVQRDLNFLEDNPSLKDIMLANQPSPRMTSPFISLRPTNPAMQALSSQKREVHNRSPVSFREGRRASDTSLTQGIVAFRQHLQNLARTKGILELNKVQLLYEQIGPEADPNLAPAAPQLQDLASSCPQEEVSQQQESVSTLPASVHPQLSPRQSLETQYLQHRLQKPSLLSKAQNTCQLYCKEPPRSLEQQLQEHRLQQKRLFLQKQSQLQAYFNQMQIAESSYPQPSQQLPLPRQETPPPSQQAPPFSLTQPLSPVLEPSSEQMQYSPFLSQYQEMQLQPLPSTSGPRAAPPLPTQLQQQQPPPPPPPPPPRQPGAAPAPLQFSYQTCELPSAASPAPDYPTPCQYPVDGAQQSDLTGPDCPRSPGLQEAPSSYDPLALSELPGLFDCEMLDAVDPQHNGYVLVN

% of inhibition [1]: 6.5%
SMILES: CC[C@@H]1[C@H](F)C(=O)N[C@@H]1COc1nccc2cc(C(N)=O)c(OC)cc12 [ZIMLOVISERTIB]

dTM [2]: 6.8 K
SMILES: CN1CCN(C(=O)c2ccc3cc2OCCOCCNc2ccn4ncc-3c4n2)CC1

SMILES: Cc1cc(F)c(C(=O)Nc2cccc(-c3nncn3C(C)C)n2)cc1-n1cnc(C2CC2)c1
% of control [3]: 91%

SMILES: CN(C)C/C=C/C(=O)Nc1ccc(C(=O)N2CCCC(Nc3ncc(Cl)c(-c4c[nH]c5ccccc45)n3)C2)cc1 (centres undefined)
% of control [4]: 85%

SMILES: Nc1cnc(N2CCc3cc(S(=O)(=O)Nc4c(F)cc(Cl)cc4F)cc(N4CCCC4=O)c32)nc1 [TP-020n]
% of control [5]: 100%

dTagg [6]: 0.5 K
SMILES: Cc1cc(CN)cc(C)c1-c1ncn(C)c1-c1cncn1C

SMILES: O[C@H]1CC[C@H](Nc2ncc3nc(Nc4c(F)cc(F)cc4F)n([C@H]4CCOC4)c3n2)CC1
% of control [7]: 33%

SMILES: N#Cc1cccc(-c2c[nH]c3ncnc(N4CCOCC4)c23)c1
% of inhibition [8]: -45%
% of control [9]: 62%

Reference: ChEMBL document CHEMBL5465560, “Selectivity Literature for EUbOPEN Chemogenomic Library” (2024)
